According to patent US20220400679A1, “COMPOSITION FOR ENHANCING PLANT GROWTH” (CH Biotech R&D Co., Ltd., priority 2021, published 2022):

Assays:
[1] = tested on: Glyphosate-tolerant corn plants (D40SS48); test: Example 3 analyses of leaves and roots (growth) after glyphosate treatment, corn; format: in vivo; details: 7 days after application, glyphosate 4.87 g/L, N = 10
Protocol: (§1) One seed was seeded in one pot.
(§2) 2.1 Analyses of Leaves: Seven (7) days after the application of reagents, plant height was measured, and leaves were collected. The leaf area of the fourth leaf of each corn plant and the total leaf area of each soybean plant were measured by a leaf analyzer (WinFOLIA™ Regent Instruments Inc., Québec, Canada). Leaves and stems of each plant were dried at 50° C. overnight, and then the dry weight was measured.
(§3) 2.2 Analyses of Roots: Seven (7) days after the application of reagents, length of plant root was measured by a root analyzer (WinRHIZO™, Regent Instruments Inc., Québec, Canada). In addition, roots of each plant were dried at 50° C. overnight, and then the dry weight was measured.

[2] = tested on: nitrate reductase (NR) of soybean plants; test: Example 3 activity of nitrate reductase, soybean; format: in vivo; details: 3 days after application, glyphosate vs Control group, FIG. 15
Protocol: as §1
(§4) One (1) ml of potassium phosphate buffer (100 mM, pH7.4) containing 7.5 mM cysteine, 1 mM EDTA, and 1.5% casein was added to the sample, mixed with the sample, and then the mixed sample was centrifuged at 4° C., 13,000 relative centrifugal field (rcf) for 30 minutes. […] The sample was centrifuged at room temperature, 3,000 rcf. The supernatant was transferred to a new tube and mixed with 0.5 mL sulphanilamide (5.8 mM) and 0.5 mL N-(1-naphthyl)ethylenediamine (0.8 mM). The mixture was incubated for 30 minutes. […] KNO2 is used as a NO2^− concentration standard.

[3] = tested on: glutamate synthase (GOGAT) of corn plants; test: Example 3 activity of glutamate synthase, corn; format: in vivo; details: 3 days after application, glyphosate vs Control group, FIG. 10
Protocol: as §1
(§5) The leaf powder and 1 ml of extraction solution, containing 10 mM Tris-HCl (pH7.6), 1 mM MgCl2, 1 mM EDTA, and 10 mM 2-Mercaptoethanol, were centrifuged at 4° C., 13,000 rcf for 30 minutes. Zero-point-one-five (0.15) ml of the supernatant was mixed with the reaction solution containing 0.2 mL of 20 mM L-glutamine, 0.25 mL of 2 mM 2-oxoglutarate, 0.05 mL of 10 mM KCl, 1 mL of 25 mM Tris-HCl (pH7.6), and 0.1 mL 3 mM NADH to initiate the reaction. The GOGAT activity is determined by NADH reduction through measuring fluorescence intensity at excitation/emission wavelengths of 340/445 nm. NADH concentration is determined by reference to a NADH standard curve.

[4] = tested on: glutamine synthetase (GS) of corn plants; test: Example 3 activity of glutamine synthetase, corn; format: in vivo; details: 3 days after application, glyphosate vs Control group, FIG. 9
Protocol: as §1
(§6) The leaf powder and 1 ml of extraction solution, containing 10 mM Tris-HCl (pH7.6), 1 mM MgCl2, 1 mM EDTA, and 10 mM 2-Mercaptoethanol, were centrifuged at 4° C., 13,000 rcf for 30 minutes. […] The sample was centrifuged at room temperature, 3,000 rcf. Absorbance at an O.D. of 540 nm (A540) of the supernatant was measured.

[5] = tested on: glutamine synthetase (GS) of soybean plants; test: Example 3 activity of glutamine synthetase, soybean; format: in vivo; details: 3 days after application, glyphosate vs Control group, FIG. 16
Protocol: as §1, §6

[6] = tested on: Glyphosate-tolerant corn plants (D40SS48); test: Example 2 different concentrations of components with glyphosate: shoot dry weight, corn; format: in vivo; details: glyphosate 4.87 g/L vs Control group (p<0.01), FIG. 3A
Protocol: (§7) 2.1 Shoot dry weight: Seven (7) days after the application of reagents, leaves and stems of each plant were dried at 50° C. overnight, and then the dry weight was measured.
as §1
(§8) Methods for analyzing shoot dry weight and statistics are the same as described in Example 1.

[7] = tested on: Glyphosate-tolerant soybean plants (S29RY05); test: Example 3 content of TBARS, soybean; details: 3 days after application, glyphosate vs Control group, FIG. 14
[8] = tested on: Glyphosate-tolerant soybean plants (S29RY05); test: Example 3 content of plant hormones, soybean; format: in vivo; details: with glyphosate treatment (4.87 g/L), 12 days after application, N = 3
Protocol: as §1
(§9) 2.8 Content of Plant Hormones: Twelve (12) days after the application of reagents, 1 g of fresh sample leaf was ground in liquid nitrogen and then mixed with 10 g extraction solution (80% (v/v) methanol, 1% (v/v) acetic acid) by a vortex mixer. The sample was then sonicated for 1 hour and centrifuged at 2,500 rpm for 10 minutes. The supernatant was collected, concentrated, dissolved in 1 ml of 100% methanol, and then analyzed for content of plant hormones with a tandem quadrupole mass spectrometer (Waters® Xevo® TQ MS, Waters Corporation, Milford, Mass., USA) and ACQUITY UPLC System (Waters Corporation, Milford, Mass., USA).

[9] = tested on: Glyphosate-tolerant soybean plants (S29RY05); test: Example 2 different concentrations of components with glyphosate: shoot dry weight, soybean; format: in vivo; details: glyphosate 4.87 g/L vs Control group (p<0.01), FIG. 4A
Protocol: as §7, §1, §8

[10] = tested on: glutamate synthase (GOGAT) of soybean plants; test: Example 3 activity of glutamate synthase, soybean; format: in vivo; details: 3 days after application, glyphosate vs Control group, FIG. 17
Protocol: as §1, §5

[11] = tested on: nitrate reductase (NR) of corn plants; test: Example 3 activity of nitrate reductase, corn; format: in vivo; details: 3 days after application, glyphosate vs Control group, FIG. 8
Protocol: as §1, §4

[12] = tested on: Glyphosate-tolerant soybean plants (S29RY05); test: Example 3 analyses of leaves and roots (growth) after glyphosate treatment, soybean; format: in vivo; details: 7 days after application, glyphosate 4.87 g/L
Protocol: as §1, §2, §3

[13] = tested on: Glyphosate-tolerant corn plants (D40SS48); test: Example 3 content of plant hormones, corn; format: in vivo; details: with glyphosate treatment (4.87 g/L), 12 days after application, N = 3
Protocol: as §1, §9

[14] = tested on: Glyphosate-tolerant soybean plants (S29RY05); test: Example 3 electrolyte leakage, soybean; format: in vivo; details: 3 days after application, glyphosate vs Control group, FIG. 13
Protocol: as §1
(§10) Six (6) leaf disks (7.5 mm diameter) were cut from the sample leaves and immersed in 10 ml of deionized water at 25° C. for 24 hours. After that, the first electrolytic conductivity (EC1) of the sample solution was analyzed with an electrical conductivity meter (SevenCompact™ 5230 Conductivity Meter, Mettler-Toledo, Columbus, Ohio, USA). The sample leaf disks were then kept in the deionized water at 95° C. for 2 hours. After the temperature of the sample solution decreased to 25° C., the second electrolytic conductivity (EC2) of the sample solution was analyzed with the electrical conductivity meter again. Ten (10) milliliters of deionized water without any sample were used as control. Electrolyte leakage of the sample leaves was analyzed with the following equation.
(§11) Electrolyte leakage (%)=(Sample EC1−Control EC1)×100/(Sample EC2−Control EC2)

[15] = tested on: Glyphosate-tolerant corn plants (D40SS48); test: Example 3 electrolyte leakage, corn; format: in vivo; details: 3 days after application, glyphosate vs Control group, FIG. 6
Protocol: as §1, §10, §11

[16] = tested on: Glyphosate-tolerant corn plants (D40SS48); test: Example 3 content of TBARS, corn; details: 3 days after application, glyphosate vs Control group, FIG. 7
[17] = tested on: Glyphosate-tolerant corn plants (D40SS48); test: Example 1 synergistic test with glyphosate: shoot dry weight, corn; format: in vivo; details: 7 days after application, glyphosate 4.87 g/L vs Control group (p<0.01), FIG. 1A
Protocol: as §1, §7
(§12) 2.2 Statistics: Unpaired Student's t-test was applied to assess numerical data statistical significance. Statistical significance was set at p-value less than 0.05.

[18] = tested on: Glyphosate-tolerant soybean plants (S29RY05); test: Example 1 synergistic test with glyphosate: shoot dry weight, soybean; format: in vivo; details: 7 days after application, glyphosate 4.87 g/L vs Control group (p<0.01), FIG. 2A
Protocol: as §1, §7, §12

O=C(O)CNCP(=O)(O)O [Glyphosate only, glyphosate]
Plant height [1]: 42.70 cm
Root dry weight [1]: 0.35 g
The 4th leaf area [1]: 89.45 cm^2
Total root length [1]: 1405.69 cm
shoot dry weight [1]: 1.30 g
activities of nitrate reductase (NR) [2]: decrease in activities
activities of glutamate synthase (GOGAT) [3]: decrease in activities
activities of glutamine synthetase (GS) [4]: decrease in activities
activities of glutamine synthetase (GS) [5]: decrease in activities
shoot dry weight [6]: significant decrease in shoot dry weight
TBARS level [7]: increase in TBARS level
Phytohormone content: ABA [8]: 1189 ng/g FW
Phytohormone content: Cytokinin (Zeatin+iPAs) [8]: 0.68 ng/g FW
Phytohormone content: GA1 [8]: 832 ng/g FW
Phytohormone content: IAA [8]: 28 ng/g FW
shoot dry weight [9]: significant decrease in shoot dry weight
activities of glutamate synthase (GOGAT) [10]: decrease in activities
activities of nitrate reductase (NR) [11]: decrease in activities
leaf curling symptoms (phenotype observation of soybean leaves) ([12]; FIG. 12): causes leaf curling symptoms
necrotic areas (phenotype observation of soybean leaves) ([12]; FIG. 12): necrotic areas
Root dry weight ([12]; N = 10): 0.28 g
Shoot fresh weight ([12]; N = 10): 2.46 g
The unifoliate leaf length ([12]; N = 10): 4.54 cm
Total leaf area ([12]; N = 10): 55.96 cm^2
Total root length ([12]; N = 10): 2047.40 cm
Phytohormone content: ABA [13]: 2742 ng/g FW
Phytohormone content: Cytokinin (Zeatin+iPAs) [13]: 0.75 ng/g FW
Phytohormone content: GA1 [13]: 625 ng/g FW
Phytohormone content: IAA [13]: 45 ng/g FW
electrolyte leakage [14]: increase in electrolyte leakage
electrolyte leakage [15]: increase in electrolyte leakage
TBARS level [16]: increase in TBARS level
shoot dry weight [17]: significant decrease in shoot dry weight
shoot dry weight [18]: significant decrease in shoot dry weight
